The supplement of paper PMC10307832

Columns and labels:
Assay in all cases: relative viability (nuclei count vs DMSO), 5 days (fraction); higher = more cells survive
AZ3146 + Crizotinib = compound: CN1CCC(CC1)OC2=CC(=C(C=C2)NC3=NC=C4C(=N3)N(C(=O)N4C)C5CCCC5)OC [AZ3146] + C[C@@H](Oc1cc(-c2cnn(C3CCNCC3)c2)cnc1N)c1c(Cl)ccc(F)c1Cl [Crizotinib] (partner 1 µM)
Procedure, shortened: (§1)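 Relative viability was taken as the ratio of nuclei in treated wells to nuclei in vehicle wells. Lung cancer cell lines in 1536-well plates received compounds by pin tool one day after seeding, either one drug alone or a fixed anchor-drug dose plus five library-drug doses (not always all listed) in √10 steps. Nuclei were counted on 4× images after 5 days of treatment, and values are medians of duplicate plates.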

AZ3146 + Foretinib = compound: CN1CCC(CC1)OC2=CC(=C(C=C2)NC3=NC=C4C(=N3)N(C(=O)N4C)C5CCCC5)OC [AZ3146] + COc1cc2c(Oc3ccc(NC(=O)C4(C(=O)Nc5ccc(F)cc5)CC4)cc3F)ccnc2cc1OCCCN1CCOCC1 [Foretinib] (partner 0.25 µM)
Procedure, shortened: as §1

GSK-J4 + Olaparib = compound: CCOC(=O)CCNc1cc(N2CCc3ccccc3CC2)nc(-c2ccccn2)n1 [GSK-J4] + O=C(c1cc(Cc2n[nH]c(=O)c3ccccc23)ccc1F)N1CCN(C(=O)C2CC2)CC1 [Olaparib] (partner 8 µM)
Procedure, shortened: as §1

GSK-J4 + AZD7762 = compound: CCOC(=O)CCNc1cc(N2CCc3ccccc3CC2)nc(-c2ccccn2)n1 [GSK-J4] + NC(=O)Nc1cc(-c2cccc(F)c2)sc1C(=O)N[C@H]1CCCNC1 [AZD7762] (partner 0.2 µM)
Procedure, shortened: as §1

Cell Line	relative viability (AZ3146 + Crizotinib; first compound 0.253 µM)	relative viability (AZ3146 + Crizotinib; first compound 0.8 µM)	relative viability (AZ3146 + Crizotinib; first compound 2.53 µM)	relative viability (AZ3146 + Crizotinib; first compound 8 µM)	relative viability (AZ3146 + Foretinib; first compound 0.08 µM)	relative viability (AZ3146 + Foretinib; first compound 0.253 µM)	relative viability (AZ3146 + Foretinib; first compound 0.8 µM)	relative viability (AZ3146 + Foretinib; first compound 2.53 µM)	relative viability (AZ3146 + Foretinib; first compound 8 µM)	relative viability (GSK-J4 + Olaparib; first compound 0.5 µM)	relative viability (GSK-J4 + Olaparib; first compound 1.581 µM)	relative viability (GSK-J4 + Olaparib; first compound 15.81 µM)	relative viability (GSK-J4 + Olaparib; first compound 50 µM)	relative viability (GSK-J4 + AZD7762; first compound 0.5 µM)	relative viability (GSK-J4 + AZD7762; first compound 1.581 µM)	relative viability (GSK-J4 + AZD7762; first compound 15.81 µM)	relative viability (GSK-J4 + AZD7762; first compound 50 µM)	relative viability (AZ3146 + Crizotinib; first compound 0.08 µM)	relative viability (GSK-J4 + Olaparib; first compound 5 µM)	relative viability (GSK-J4 + AZD7762; first compound 5 µM)
NCI-H1944	0.977	1.09	1.13	1.1	0.664	0.88	0.985	0.943	0.99	0.389	0.373	0.376	0.358	0.492	0.64	0.414	0.427			
NCI-H1975	1.07	0.834	0.406	0.299	0.915	0.886	1.04	0.977	0.362	0.729	0.715	0.795	0.849	0.783	0.633	0.63	0.858	0.862	0.579	
NCI-H1993	0.847	0.813	0.879	0.84	0.866	0.776	0.771	0.834	0.834	1.21	0.885	0.952	1.01	0.805	0.683	0.604	0.435	0.876	1.1	1.04
NCI-H2085	0.998	0.933	0.824	0.658	0.898	1	0.977	1	0.868	0.773	0.734	0.707	0.627	0.926	0.896	0.792	0.936	0.837	0.654	0.888
NCI-H2087	0.875	0.843	0.795	0.376	1.06	1.11	1.12	1.05	0.531	0.525	0.535	0.542	0.371	1.09	1.25	1.23	0.8	0.906	0.439	1.05
NCI-H2126	0.992	1.06	1.07	0.989	0.911	1.31	1.04	1.25	1.29	0.912	0.895	0.855	0.762	1	0.928	0.891	0.89	1.05	0.966	1.05
NCI-H2170	1.07	1.22	1.11	1.03	1.09	0.974	0.983	1.04	1.03	0.533	0.538	0.536	0.391	0.776	0.839	0.667	0.836	1.04	0.652	0.774
NCI-H2347	0.677	0.822	0.647	0.699	0.89	0.934	0.501	1.1	1.07	0.587	0.597	0.675	0.437	0.779	0.783	0.724	0.591	0.522	0.554	0.781
NCI-H2405	0.842	0.733	0.899	0.798	1.02	1.03	1.13	1.1	1.09	0.849	0.836	0.815	0.777	0.774	0.954	0.677	0.738	0.808		
NCI-H3122	0.299	0.274	0.305	0.27	0.924	1.02	0.971	0.942	1.03	0.539	0.578	0.575	0.504	1.01	0.917	0.93	1	0.294	0.668	0.916
PC-3 [JPC-3]	0.983	0.974	1.03	0.984	0.927	1.02	1.03	1.14	0.966	1.06	1.06	1.07	0.801	1.04	0.55	0.748	0.555	0.912	0.996	0.932
PC-14	0.98	0.975	1	0.828	0.891	0.9	0.969	1.02	1.02	0.304	0.271	0.228	0.227	0.503	0.316	0.315	0.343	0.898	0.195	
RERF-LC-KJ	0.864	0.816	0.864	0.66	0.851	0.862	0.895	0.942	0.844	0.867	0.928	0.814	0.484	0.916	0.825	0.821	0.672	0.794	0.867	0.812
